# Assay results as given in patent US8436159B2, “Glyphosate resistant class I 5-endolpyruvylshikimate-3-phosphate synthase (EPSPS)” (Monsanto Technology LLC, priority 2003, dated 2013).
# Molecular target: T1, maize (Zea mays) class I EPSPS, wild type (WT), pMON70461, DNA SEQ ID NO:3 (Zea mays, UniProt O24566)
# T1 construct: pMON70461
# T1 sequence (O24566 with tags, fused parts or gaps): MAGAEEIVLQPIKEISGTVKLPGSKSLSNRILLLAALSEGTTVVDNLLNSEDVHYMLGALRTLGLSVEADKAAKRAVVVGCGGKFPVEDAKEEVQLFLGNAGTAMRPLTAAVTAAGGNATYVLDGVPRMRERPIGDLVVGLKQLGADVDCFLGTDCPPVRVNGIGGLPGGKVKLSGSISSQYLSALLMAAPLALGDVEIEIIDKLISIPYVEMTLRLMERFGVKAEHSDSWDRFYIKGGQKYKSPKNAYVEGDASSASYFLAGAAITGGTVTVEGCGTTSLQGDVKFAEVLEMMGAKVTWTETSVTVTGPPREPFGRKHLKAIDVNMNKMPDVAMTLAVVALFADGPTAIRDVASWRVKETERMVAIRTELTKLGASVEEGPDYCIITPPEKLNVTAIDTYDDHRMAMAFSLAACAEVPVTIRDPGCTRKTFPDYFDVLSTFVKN
# Experiment: EPSPS steady-state kinetics, wild-type maize EPSPS
# Assay type: biochemical
# Experimental: The wild type and variant EPSPS coding sequences were cloned into a pET-19b base vector (Novagen, Madison, Wis.). The plant (maize) class I EPSPS variants so created were assigned pMON plasmid numbers (Table 2). The variant EPSPS proteins were purified from the E. coli host using the protocols outlined in the pET system manual, 9th edition (Novagen) or by the following method. A single colony or a few microliters from a glycerol stock was inoculated into 4 mL LB medium containing 0.1 mg/mL carbenicillin antibiotic. The culture was incubated with shaking at 37 C for 4 hours. The cultures were stored at 4° C. overnight. The following morning, 1 mL of the overnight culture was used to inoculate 100 mL of fresh LB medium containing 0.1 mg/mL carbenicillin. The cultures were incubated with shaking at 37 C for 4-5 hours, then the cultures were placed at 4° C. for 5-10 minutes. The cultures were then induced with IPTG (1 mM final concentration) and incubated with shaking at 30 C for 4 hours or 20° C. overnight. The cells were harvested by centrifugation at 7000 rpm for 20 minutes at 4° C. The supernatant was removed and the cells were frozen at −70° C. until further use. The proteins were extracted by resuspending the cell pellet in BugBuster reagent (Novagen) using 5 mL reagent per gram of cells. Benzonase (125 Units) was added to the resuspension and the cell suspension was then incubated on a rotating mixer for 20 minutes at room temperature. The cell debris was removed by centrifugation at 10,000 rpm for 20 minutes at room temperature. The supernatant was passed through a 0.45 μm syringe-end filter and transferred to a fresh tube. A pre-packed columns containing 1.25 mL of His-Bind resin was equilibrated with 10 mL of 5 mM imidazole, 0.5 M NaCl, 20 mM Tris-HCl pH 7.9 (1× Binding Buffer). The column was then loaded with the prepared cell extract. After the cell extract had drained, the column was then washed with 10 mL of 1× Binding Buffer, followed with 10 mL of 60 mM imidazole, 0.5 M NaCl, 20 mM Tris-HCl pH 7.9 (1× Wash Buffer). […]
compound,measurement,value
"O=C(O)CNCP(=O)(O)O [glyphosate, N-phosphonomethylglycine]",Ki,500 ± 60 nM
